According to patent US20100292231A1, “Indazole Compounds for Treating Inflammatory Disorders, Demyelinating Disorders and Cancers” (priority 2007, published 2010):
Like-named read-outs stand apart in the source and are kept apart here.

Experiments:
Assay in all cases: SelectScreen kinase specificity survey
Format in all cases: biochemical
[1] = target: T1, ADRBK1 (BARK1, GRK2) (Homo sapiens, UniProt P25098)
T1 construct: purchased Invitrogen (SelectScreen platform)
Method in brief: (§1)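 EC50 values are estimates from an abridged dose-response curve fitted to a 4-parameter Hill sigmoid. Compound was titrated in 5 increments against each kinase, which was paired with a unique substrate and optical reporter in 100 micromolar ATP.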

[2] = target: T2, AKT1 (PKB alpha) (Homo sapiens, UniProt P31749); conditions: estimated, abridged dose response curve, read-out: Kinase inhibitory activity EC50
T2 construct: purchased Invitrogen (SelectScreen platform)
T2 sequence (P31749 whole entry): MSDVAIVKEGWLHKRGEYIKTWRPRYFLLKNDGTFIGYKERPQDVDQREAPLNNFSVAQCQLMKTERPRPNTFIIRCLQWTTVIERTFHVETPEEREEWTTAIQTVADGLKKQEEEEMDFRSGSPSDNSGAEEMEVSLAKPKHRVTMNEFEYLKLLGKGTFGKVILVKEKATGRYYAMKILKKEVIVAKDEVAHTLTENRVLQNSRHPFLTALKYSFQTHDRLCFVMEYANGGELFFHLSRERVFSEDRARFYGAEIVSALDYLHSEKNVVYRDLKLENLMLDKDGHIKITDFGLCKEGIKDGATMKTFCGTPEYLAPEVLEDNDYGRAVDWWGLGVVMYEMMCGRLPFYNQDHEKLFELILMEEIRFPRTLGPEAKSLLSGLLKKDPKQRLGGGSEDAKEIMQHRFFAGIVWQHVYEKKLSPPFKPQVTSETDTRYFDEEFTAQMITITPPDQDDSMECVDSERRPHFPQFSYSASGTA
Method in brief: as §1

[3] = target: T3, BRAF (Homo sapiens, UniProt P15056); conditions: estimated, abridged dose response curve, read-out: Kinase inhibitory activity EC50
T3 construct: purchased Invitrogen, Inc. (SelectScreen platform)
Method in brief: as §1

[4] = target: T4, BTK (Homo sapiens, UniProt Q06187); conditions: estimated, abridged dose response curve, read-out: Kinase inhibitory activity EC50
T4 construct: purchased Invitrogen (SelectScreen)
Method in brief: as §1

[5] = target: T5, CDK1/cyclin B (CDC2) (Homo sapiens, UniProt P06493); conditions: estimated, abridged dose response curve, read-out: Kinase inhibitory activity EC50
T5 construct: purchased Invitrogen (SelectScreen platform)
Method in brief: as §1

[6] = target: T6, CDK5/p25 (Homo sapiens, UniProt Q00535); conditions: estimated, abridged dose response curve, read-out: Kinase inhibitory activity EC50
T6 construct: purchased Invitrogen (SelectScreen platform)
Method in brief: as §1

[7] = target: T7, EGFR (ErbB1) L858R (Homo sapiens, UniProt P00533, L858R); conditions: estimated, abridged dose response curve, read-out: Kinase inhibitory activity EC50
T7 construct: purchased Invitrogen (SelectScreen service)
Method in brief: as §1

[8] = target: T8, EGFR (ErbB1) T790M (Homo sapiens, UniProt P00533, T790M); conditions: estimated, abridged dose response curve, read-out: Kinase inhibitory activity EC50
T8 construct: purchased Invitrogen (SelectScreen service)
T8 sequence (P00533 25-1210 T790M): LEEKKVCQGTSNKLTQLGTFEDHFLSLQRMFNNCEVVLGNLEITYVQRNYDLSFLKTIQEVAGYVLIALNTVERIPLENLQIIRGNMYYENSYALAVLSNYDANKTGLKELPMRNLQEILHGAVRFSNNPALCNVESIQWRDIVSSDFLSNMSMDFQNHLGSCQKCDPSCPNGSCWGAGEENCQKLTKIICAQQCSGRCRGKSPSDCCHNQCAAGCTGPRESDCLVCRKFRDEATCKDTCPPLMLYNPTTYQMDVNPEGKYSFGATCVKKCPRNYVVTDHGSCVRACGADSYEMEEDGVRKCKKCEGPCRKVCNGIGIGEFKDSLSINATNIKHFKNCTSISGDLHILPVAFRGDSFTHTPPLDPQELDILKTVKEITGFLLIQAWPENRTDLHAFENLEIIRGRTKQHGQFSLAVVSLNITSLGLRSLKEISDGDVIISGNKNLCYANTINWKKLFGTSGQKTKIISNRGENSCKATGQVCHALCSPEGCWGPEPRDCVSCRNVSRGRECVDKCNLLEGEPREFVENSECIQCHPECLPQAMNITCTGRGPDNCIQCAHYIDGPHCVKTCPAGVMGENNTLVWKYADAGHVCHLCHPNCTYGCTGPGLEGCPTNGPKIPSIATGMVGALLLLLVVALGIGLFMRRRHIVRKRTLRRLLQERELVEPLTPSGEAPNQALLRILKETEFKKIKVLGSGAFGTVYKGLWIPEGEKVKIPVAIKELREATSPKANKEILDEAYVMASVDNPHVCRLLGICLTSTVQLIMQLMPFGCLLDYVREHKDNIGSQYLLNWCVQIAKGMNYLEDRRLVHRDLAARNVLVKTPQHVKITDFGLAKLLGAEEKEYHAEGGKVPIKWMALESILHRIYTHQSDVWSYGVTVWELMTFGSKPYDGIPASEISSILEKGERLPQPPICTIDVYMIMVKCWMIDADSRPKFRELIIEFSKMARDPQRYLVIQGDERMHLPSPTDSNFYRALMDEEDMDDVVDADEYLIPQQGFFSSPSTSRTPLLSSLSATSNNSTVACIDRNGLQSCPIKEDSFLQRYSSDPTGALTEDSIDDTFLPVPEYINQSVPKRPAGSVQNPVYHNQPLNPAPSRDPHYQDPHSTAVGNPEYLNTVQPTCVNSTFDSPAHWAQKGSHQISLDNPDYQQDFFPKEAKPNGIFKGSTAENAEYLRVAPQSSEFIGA

[9] = target: T9, EPHA1 (Homo sapiens, UniProt P21709); conditions: estimated, abridged dose response curve, read-out: Kinase inhibitory activity EC50
T9 construct: purchased Invitrogen (SelectScreen service)
Method in brief: as §1

[10] = target: T10, FLT4 (VEGFR3) (Homo sapiens, UniProt P35916); conditions: estimated, abridged dose response curve, read-out: Kinase inhibitory activity EC50
T10 construct: purchased Invitrogen, Inc. (SelectScreen platform)
Method in brief: as §1

[11] = target: T11, FYN (Homo sapiens, UniProt P06241); conditions: estimated, abridged dose response curve, read-out: Kinase inhibitory activity EC50
T11 construct: purchased Invitrogen (SelectScreen)
T11 sequence (P06241 whole entry): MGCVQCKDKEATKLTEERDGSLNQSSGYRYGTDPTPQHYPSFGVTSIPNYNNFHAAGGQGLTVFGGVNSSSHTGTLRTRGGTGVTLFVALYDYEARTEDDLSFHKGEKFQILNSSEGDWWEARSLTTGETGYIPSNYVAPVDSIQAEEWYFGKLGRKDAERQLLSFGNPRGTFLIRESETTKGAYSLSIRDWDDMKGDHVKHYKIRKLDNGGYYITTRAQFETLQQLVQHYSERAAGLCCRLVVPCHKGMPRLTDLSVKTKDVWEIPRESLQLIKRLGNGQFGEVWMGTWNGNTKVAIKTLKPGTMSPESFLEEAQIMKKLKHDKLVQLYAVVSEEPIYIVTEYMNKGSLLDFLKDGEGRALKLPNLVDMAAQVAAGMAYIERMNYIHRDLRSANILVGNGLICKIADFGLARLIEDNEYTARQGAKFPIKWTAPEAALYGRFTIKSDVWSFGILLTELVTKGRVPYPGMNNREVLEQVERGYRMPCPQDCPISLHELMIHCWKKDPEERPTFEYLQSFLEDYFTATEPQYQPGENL
Method in brief: as §1

[12] = target: T12, GSK3A (GSK3 alpha) (Homo sapiens, UniProt P49840); conditions: estimated, abridged dose response curve, read-out: Kinase inhibitory activity EC50
T12 construct: purchased Invitrogen (SelectScreen platform)
Method in brief: as §1

[13] = target: T13, HCK (Homo sapiens, UniProt P08631); conditions: estimated, abridged dose response curve, read-out: Kinase inhibitory activity EC50
T13 construct: purchased Invitrogen (SelectScreen)
T13 sequence (P08631 whole entry): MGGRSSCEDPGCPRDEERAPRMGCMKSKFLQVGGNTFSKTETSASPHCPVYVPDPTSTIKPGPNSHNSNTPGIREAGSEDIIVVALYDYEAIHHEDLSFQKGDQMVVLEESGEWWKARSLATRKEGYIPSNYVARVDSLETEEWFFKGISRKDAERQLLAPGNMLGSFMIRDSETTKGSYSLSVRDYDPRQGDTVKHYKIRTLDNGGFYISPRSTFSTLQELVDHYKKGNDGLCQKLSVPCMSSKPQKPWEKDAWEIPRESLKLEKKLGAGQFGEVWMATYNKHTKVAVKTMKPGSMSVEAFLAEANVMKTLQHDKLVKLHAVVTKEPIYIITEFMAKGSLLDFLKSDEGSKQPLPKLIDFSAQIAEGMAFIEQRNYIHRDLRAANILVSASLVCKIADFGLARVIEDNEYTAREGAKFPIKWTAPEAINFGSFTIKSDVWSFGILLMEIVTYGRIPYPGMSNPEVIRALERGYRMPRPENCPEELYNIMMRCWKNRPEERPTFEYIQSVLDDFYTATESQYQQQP
Method in brief: as §1

[14] = target: T14, IKBKB (IKK beta) (Homo sapiens, UniProt O14920); conditions: estimated, abridged dose response curve, read-out: Kinase inhibitory activity EC50
T14 construct: purchased Invitrogen, Inc. (SelectScreen service)
Method in brief: as §1

[15] = target: T15, INSR (Homo sapiens, UniProt P06213); conditions: estimated, abridged dose response curve, read-out: Kinase inhibitory activity EC50
T15 construct: purchased Invitrogen (SelectScreen platform)
T15 sequence (P06213 28-1382): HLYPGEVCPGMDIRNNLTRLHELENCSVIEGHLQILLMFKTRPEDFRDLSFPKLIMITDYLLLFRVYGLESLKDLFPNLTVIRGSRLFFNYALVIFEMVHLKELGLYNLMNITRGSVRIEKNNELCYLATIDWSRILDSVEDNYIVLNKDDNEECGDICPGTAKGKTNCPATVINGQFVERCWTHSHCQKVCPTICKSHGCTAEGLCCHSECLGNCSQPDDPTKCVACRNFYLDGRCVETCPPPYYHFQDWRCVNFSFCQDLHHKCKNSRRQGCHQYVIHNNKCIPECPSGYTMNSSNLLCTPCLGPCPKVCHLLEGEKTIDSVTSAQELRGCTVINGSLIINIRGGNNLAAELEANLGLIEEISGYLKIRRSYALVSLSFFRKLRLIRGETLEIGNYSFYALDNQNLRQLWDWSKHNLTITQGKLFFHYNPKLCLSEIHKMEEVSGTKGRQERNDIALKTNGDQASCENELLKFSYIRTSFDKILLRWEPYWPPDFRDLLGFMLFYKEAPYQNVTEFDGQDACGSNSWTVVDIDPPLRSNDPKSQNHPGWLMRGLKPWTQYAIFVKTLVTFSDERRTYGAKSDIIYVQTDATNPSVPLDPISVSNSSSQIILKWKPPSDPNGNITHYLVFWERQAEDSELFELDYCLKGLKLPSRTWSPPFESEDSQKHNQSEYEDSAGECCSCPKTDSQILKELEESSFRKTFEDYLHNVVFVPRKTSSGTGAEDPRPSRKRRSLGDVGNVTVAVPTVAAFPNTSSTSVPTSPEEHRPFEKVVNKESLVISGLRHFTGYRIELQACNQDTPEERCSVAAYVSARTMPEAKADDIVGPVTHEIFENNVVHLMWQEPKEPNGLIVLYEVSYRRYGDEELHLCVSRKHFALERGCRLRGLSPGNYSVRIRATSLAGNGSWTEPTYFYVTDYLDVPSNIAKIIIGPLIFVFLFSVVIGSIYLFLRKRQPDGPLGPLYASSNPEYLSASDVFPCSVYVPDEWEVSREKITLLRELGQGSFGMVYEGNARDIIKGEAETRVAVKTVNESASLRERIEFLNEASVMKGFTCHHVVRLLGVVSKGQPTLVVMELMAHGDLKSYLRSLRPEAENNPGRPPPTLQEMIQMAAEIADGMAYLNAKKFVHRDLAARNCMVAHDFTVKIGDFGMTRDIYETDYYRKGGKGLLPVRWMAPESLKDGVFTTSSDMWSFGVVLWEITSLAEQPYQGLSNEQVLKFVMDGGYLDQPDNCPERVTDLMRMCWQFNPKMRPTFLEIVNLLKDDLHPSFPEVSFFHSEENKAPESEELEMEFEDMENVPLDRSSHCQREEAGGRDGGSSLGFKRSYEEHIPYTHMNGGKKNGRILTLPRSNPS
Method in brief: as §1

[16] = target: T16, JAK1 (Homo sapiens, UniProt P23458); conditions: estimated, abridged dose response curve, read-out: Kinase inhibitory activity EC50
T16 construct: purchased Invitrogen (SelectScreen platform)
Method in brief: as §1

[17] = target: T17, JAK3 (Homo sapiens, UniProt P52333); conditions: estimated, abridged dose response curve, read-out: Kinase inhibitory activity EC50
T17 construct: purchased Invitrogen (SelectScreen platform)
Method in brief: as §1

[18] = target: T18, MAP3K9 (MLK1) (Homo sapiens, UniProt P80192); conditions: estimated, abridged dose response curve, read-out: Kinase inhibitory activity EC50
T18 construct: purchased Invitrogen, Inc. (SelectScreen platform)
Method in brief: as §1

[19] = target: T19, MARK1 (MARK) (Homo sapiens, UniProt Q9P0L2); conditions: estimated, abridged dose response curve, read-out: Kinase inhibitory activity EC50
T19 construct: purchased Invitrogen, Inc. (SelectScreen platform)
T19 sequence (Q9P0L2 whole entry): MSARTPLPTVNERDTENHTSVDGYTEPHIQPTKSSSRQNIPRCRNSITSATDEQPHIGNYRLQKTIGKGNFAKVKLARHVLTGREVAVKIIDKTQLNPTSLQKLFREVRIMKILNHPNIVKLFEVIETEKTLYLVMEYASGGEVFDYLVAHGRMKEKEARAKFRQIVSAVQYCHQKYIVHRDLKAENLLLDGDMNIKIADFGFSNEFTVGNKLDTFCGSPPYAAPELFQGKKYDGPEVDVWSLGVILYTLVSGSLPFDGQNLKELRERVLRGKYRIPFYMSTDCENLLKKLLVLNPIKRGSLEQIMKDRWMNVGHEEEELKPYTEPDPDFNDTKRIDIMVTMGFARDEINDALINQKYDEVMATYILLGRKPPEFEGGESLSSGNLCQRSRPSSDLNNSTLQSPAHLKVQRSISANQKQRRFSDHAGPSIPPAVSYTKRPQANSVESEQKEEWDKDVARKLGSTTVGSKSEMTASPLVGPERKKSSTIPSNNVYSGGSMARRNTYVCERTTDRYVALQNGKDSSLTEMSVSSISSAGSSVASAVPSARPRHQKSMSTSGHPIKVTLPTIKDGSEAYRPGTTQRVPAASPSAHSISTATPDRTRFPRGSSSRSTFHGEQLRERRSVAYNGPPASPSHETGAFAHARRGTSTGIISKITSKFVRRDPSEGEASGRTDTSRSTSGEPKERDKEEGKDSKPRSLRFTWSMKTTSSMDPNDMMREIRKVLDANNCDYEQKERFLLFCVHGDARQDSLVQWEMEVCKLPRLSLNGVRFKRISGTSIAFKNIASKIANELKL
Method in brief: as §1

[20] = target: T20, NTRK3 (TRKC) (Homo sapiens, UniProt Q16288)
T20 construct: purchased Invitrogen, Inc. (SelectScreen platform)
Method in brief: as §1

[21] = target: T21, PAK7 (KIAA1264, PAK5) (Homo sapiens, UniProt Q9P286); conditions: estimated, abridged dose response curve, read-out: Kinase inhibitory activity EC50
T21 construct: purchased Invitrogen (SelectScreen platform)
Method in brief: as §1

[22] = target: T22, PDGFRA D842V (Homo sapiens, UniProt P16234, D842V); conditions: estimated, abridged dose response curve, read-out: Kinase inhibitory activity EC50
T22 construct: purchased Invitrogen (SelectScreen platform)
Method in brief: as §1

[23] = target: T23, PDK1 (Homo sapiens, UniProt O15530); conditions: estimated, abridged dose response curve, read-out: Kinase inhibitory activity EC50
T23 construct: purchased Invitrogen (SelectScreen platform)
Method in brief: as §1

[24] = target: T24, PIM2 (Homo sapiens, UniProt Q9P1W9); conditions: estimated, abridged dose response curve, read-out: Kinase inhibitory activity EC50
T24 construct: purchased Invitrogen, Inc. (SelectScreen platform)
Method in brief: as §1

[25] = target: T25, PRKCA (PKC alpha) (Homo sapiens, UniProt P17252); conditions: estimated, abridged dose response curve, read-out: Kinase inhibitory activity EC50
T25 construct: purchased Invitrogen (SelectScreen platform)
Method in brief: as §1

[26] = target: RPS6KB1 (p70S6K) (Homo sapiens, UniProt P23443); conditions: estimated, abridged dose response curve, read-out: Kinase inhibitory activity EC50
Method in brief: as §1

Compound `CCN(CC)CCNc1ccc2ncn3c4ccc(O)cc4c(=O)c1c23` [Symadex, 5-(2-(diethylamino)ethylamino)-8-hydroxy-6H-imidazo[4,5,1-de]acridin-6-one, reference compound] has an EC50 [1] of over 5 µM, an EC50 [2] of over 5 µM and an EC50 [3] of 4.45 µM. For the same compound, the EC50 [4] was 3.02 µM, the EC50 [5] was over 5 µM and the EC50 [6] was over 5 µM. For the same compound, the EC50 [7] was over 5 µM, the EC50 [8] was 2.9 µM and the EC50 [9] was over 5 µM. The EC50 [10] was 3.96 µM, the EC50 [11] was over 5 µM and the EC50 [12] was over 5 µM. The EC50 [13] was 3.98 µM, the EC50 [14] was over 5 µM and the EC50 [15] was over 5 µM. The EC50 [16] was over 5 µM, the EC50 [17] was over 5 µM and the EC50 [18] was over 5 µM. The EC50 [19] was 3.19 µM, the EC50 [20] was 3.72 µM and the EC50 [21] was over 5 µM. The EC50 [22] was 1.06 µM, the EC50 [23] was over 5 µM and the EC50 [24] was over 5 µM. The EC50 [25] was over 5 µM and the EC50 [26] was over 5 µM.

`CN(C)CCCNc1ccc2ncn3c4ccc5[nH]ncc5c4c(=O)c1c23` [Compound (IV)] showed an EC50 ([1]; ADRBK1 (BARK1, GRK2), estimated, abridged dose response curve, read-out: Kinase inhibitory activity EC50) of over 5 µM, an EC50 [2] of over 5 µM and an EC50 [3] of 1.44 µM. It also gave an EC50 [4] of 1.44 µM, an EC50 [5] of 3.95 µM and an EC50 [6] of 1.58 µM. It also gave an EC50 [7] of over 5 µM, an EC50 [8] of 4.01 µM and an EC50 [9] of over 5 µM. For the same compound, the EC50 [10] was 1.49 µM, the EC50 [11] was 0.754 µM and the EC50 [12] was 3.62 µM. For the same compound, the EC50 [13] was 2.28 µM, the EC50 [14] was 2.8 µM and the EC50 [15] was 2.4 µM. It also gave an EC50 [16] of over 5 µM, an EC50 [17] of over 5 µM and an EC50 [18] of over 5 µM. It also gave an EC50 [19] of over 5 µM, an EC50 ([20]; NTRK3 (TRKC), estimated, abridged dose response curve, read-out: Kinase inhibitory activity EC50) of 0.24 µM and an EC50 [21] of over 5 µM. For the same compound, the EC50 [22] was 0.37 µM, the EC50 [23] was 2.9 µM and the EC50 [24] was over 5 µM. The EC50 [25] was over 5 µM and the EC50 [26] was 2.37 µM.
